{
  "source": "patent US20190381171A1",
  "about": "“CO-USE OF ANTI-BCMA ANTIBODY AND ANTIBODY-COUPLED T CELL RECEPTOR (ACTR) IN CANCER THERAPY AND B CELL DISORDERS” (UNUM THERAPEUTICS INC., priority 2017, published 2019)",
  "key": {"RPMI-8226 target cells": {"system": "RPMI-8226 target cells", "test": "ACTR T-cell proliferation (live CD3+ T cell count, flow cytometry, 7 days)", "format": "cell-based, human", "settings": "ACTR variant SEQ ID NO: 1, E:T 1:1, hSG16.17 SEA 1 μg/mL, absence or presence of lenalidomide 1 μM, 7 day", "procedure": "(§1) T-cells expressing ACTR variant SEQ ID NO: 1 (effector; E) and target cells (target; T) were incubated at a 1:1, effector-to-target ratio (30,000 T cells; 30,000 target cells) with increasing concentrations of humanized afucosylated (SEA) BCMA antibody in a 200-μL reaction volume in RPMI 1640 media supplemented with 10% fetal bovine serum and 25 U/mL IL2. Reactions were incubated in a CO2 (5%) incubator at 37 degrees C. for 7 days. The number of live CD3+ T-cells were determined at day 1 and day 7 and compared to the input number of T-cells (dotted line). Briefly, at day 1 and day 7, cells were washed twice in staining buffer before being stained with a Live/Dead eFluor-780 dye for 30 min at 4 degrees C. […] After staining, cells were washed twice again with staining buffer and staining was subsequently detected via flow cytometry. […]\nMock or ACTR T cells (effector; E) and target cells (target; T) were incubated at a 1:1, effector-to-target cell ratio in the presence and absence of the anti-BCMA antibody, hSG16.17 SEA (1 μg/mL). […] The total CD3+ T cell count was determined by flow cytometry after a 7 day incubation in a CO2 (5%) incubator. […] After staining, cells were washed twice with staining buffer and detected via flow cytometry. […]"}, "NCI-H929 target cells": {"system": "NCI-H929 target cells", "test": "ACTR T-cell proliferation (live CD3+ T cell count, flow cytometry, 7 days)", "format": "cell-based, human", "settings": "ACTR variant SEQ ID NO: 1, E:T 1:1, hSG16.17 SEA 1 μg/mL, absence or presence of lenalidomide 1 μM, 7 day", "procedure": "as §1\nMock T cells or ACTR T cells (effector; E) and target cells (target; T) were incubated at a 1:1, effector-to-target cell ratio (30,000 target cells) with increasing concentration of humanized afucosylated anti-BCMA antibody (hSG16.17SEA) in a 200-μL reaction volume in RPMI 1640 media supplemented with 10% fetal bovine serum. […] The counts of live CD3+ T cells were determined at day 7. […] After staining, cells were washed twice again with staining buffer and staining was subsequently detected via flow cytometry. […]"}},
  "data": [
    {"smiles": "Nc1cccc2c1CN(C1CCC(=O)NC1=O)C2=O", "note": "(centres unmarked) [Lenalidomide, lenalidomide, reference compound]", "values": [
      {"measurement": "CD3+ T cell count", "setting": "RPMI-8226 target cells", "result": "further enhanced the proliferation"},
      {"measurement": "CD3+ T cell count", "setting": "NCI-H929 target cells", "result": "further enhanced the proliferation"}
    ]}
  ]
}
